Reference: US20230114728A1 (Venatorx Pharmaceuticals, Inc., priority 2019, published 2023)
Converted amounts (≈) assume the structure as drawn.

How the values were obtained:
Format in all cases: cell-based
[1] = system: K. pneumoniae 848844 producing SHV-11 and KPC-2; assay: Broth microdilution MIC in CAMHB; conditions: Klebsiella pneumoniae, read-out: Minimum Inhibitory Concentration, K. pneumoniae 848844
In short: (§1)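 MIC, read by eye, is the lowest compound concentration giving no bacterial growth after 16-20 h at 37° C. Test compounds are serially diluted 2-fold in CAMHB and seeded with 2-8×10^5 CFU/mL of bacteria taken from a 3-5 h shaking culture, following CLSI methods.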

[2] = system: P. aeruginosa (ΔmexAB-oprM); assay: Broth microdilution MIC in CAMHB; conditions: Pseudomonas aeruginosa, read-out: Minimum Inhibitory Concentration, P. aeruginosa ΔmexAB-OprM
In short: as §1

A. baumannii ATCC 19606 = assay: Broth microdilution MIC in CAMHB; conditions: Acinetobacter baumannii, ATCC19606; MHB; read-out: Minimum Inhibitory Concentration, A. baumannii ATCC 19606
In short: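 Colonies from cation-adjusted Mueller Hinton agar are grown in broth (3-5 h, 37° C), adjusted by OD600, and added at 2-8×10^5 CFU/mL to 2-fold compound dilutions. After 16-20 h at 37° C, the lowest concentration without growth is taken as MIC.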

[3] = system: K. pneumoniae UMM producing SHV-5 and KPC-2; assay: Broth microdilution MIC in CAMHB; conditions: Klebsiella pneumoniae, read-out: Minimum Inhibitory Concentration, K. pneumoniae UMM
In short: as §1

E. coli AG100 = assay: Broth microdilution MIC in CAMHB; conditions: Escherichia coli; E. coli AG100 (wild-type parent); MHB; read-out: Minimum Inhibitory Concentration, E. coli AG100
In short: as §1

E. coli D22 = assay: Broth microdilution MIC in CAMHB; conditions: Escherichia coli; E. coli D22 (hyper-permeable); MHB; read-out: Minimum Inhibitory Concentration, E. coli D22
In short: as §1

E. coli AG100A = assay: Broth microdilution MIC in CAMHB; conditions: Escherichia coli, read-out: Minimum Inhibitory Concentration, E. coli AG100A
In short: as §1

E. coli 901C = assay: Broth microdilution MIC in CAMHB; conditions: Escherichia coli; E. coli 901C (hyper-permeable); MHB; read-out: Minimum Inhibitory Concentration, E. coli 901C
In short: as §1

E. coli ATCC 25922 = assay: Broth microdilution MIC in CAMHB; conditions: Escherichia coli, ATCC25922; E. coli ATCC 25922; MHB; read-out: Minimum Inhibitory Concentration, E. coli 25922
In short: as §1

P. aeruginosa ATCC 27853 = assay: Broth microdilution MIC in CAMHB; conditions: Pseudomonas aeruginosa, ATCC27853; MHB; read-out: Minimum Inhibitory Concentration, P. aeruginosa ATCC 27853
In short: as §1

P. aeruginosa ATCC 35151 = assay: Broth microdilution MIC in CAMHB; conditions: Pseudomonas aeruginosa, ATCC35151; MHB; hyper-permeable strain; read-out: Minimum Inhibitory Concentration, P. aeruginosa ATCC 35151
In short: as §1

[4] = system: K. pneumoniae SI-117 producing VIM-1; assay: Broth microdilution MIC in CAMHB; conditions: Klebsiella pneumoniae, read-out: Minimum Inhibitory Concentration, K. pneumoniae SI-117
In short: as §1

N. gonorrhoeae H041 = assay: Liquid broth MIC in Fastidious broth; conditions: Neisseria gonorrhoeae, H041, read-out: Minimum Inhibitory Concentration, N. gonorrhoeae H041
In short: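 Broth microdilution against gonococcal strains expressing mosaic PBP2, starting inoculum 5×10^5 CFU/mL in Fastidious broth. Incubation runs ~24 h at 36 °C under 5% CO2, with MIC scored visually at <10% of full growth.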

Compound `NCCN1CCN(C(=O)NC(C(=O)N[C@H]2Cc3cccc(C(=O)O)c3OB2O)c2c(F)c(F)c(O)c(F)c2F)C(=O)C1=O` (stereo partly drawn) [Example 174, (3R)-3-(2-(4-(2-aminoethyl)-2,3-dioxopiperazine-1-carboxamido)-2-(2,3,5,6-tetrafluoro-4-hydroxyphenyl)acetamido)-2-hydroxy-3,4-dihydro-2H-benzo[e][1,2]oxaborinine-8-carboxylic acid] has an MIC [1] of over 128 µg/mL, an MIC [2] of 8 to 16 µg/mL (≈ 13.1 to 26.2 µM) and an MIC (A. baumannii ATCC 19606) of over 128 µg/mL. It also gave an MIC [3] of 32 to 64 µg/mL (≈ 52.4 to 105 µM), an MIC (E. coli AG100) of 8 to 16 µg/mL (≈ 13.1 to 26.2 µM) and an MIC (E. coli D22) of 2 to 4 µg/mL (≈ 3.27 to 6.54 µM). For the same compound, the MIC (E. coli AG100A) was 2 to 4 µg/mL (≈ 3.27 to 6.54 µM), the MIC (E. coli 901C) was 0.5 to 1 µg/mL (≈ 0.818 to 1.64 µM) and the MIC (E. coli ATCC 25922) was 32 to 64 µg/mL (≈ 52.4 to 105 µM). It also gave an MIC (P. aeruginosa ATCC 27853) of over 128 µg/mL, an MIC (P. aeruginosa ATCC 35151) of 0.5 to 1 µg/mL (≈ 0.818 to 1.64 µM) and an MIC [4] of over 128 µg/mL. For the same compound, the MIC (N. gonorrhoeae H041) was over 64 µg/mL.

`CS(=O)(=O)N1CCN(C(=O)N[C@H](C(=O)N[C@H]2Cc3cccc(C(=O)O)c3OB2O)c2c(F)cc(O)cc2F)C1=O` (single isomer, unassigned) [Example 136] showed an MIC [1] of over 128 µg/mL, an MIC [2] of over 128 µg/mL and an MIC (A. baumannii ATCC 19606) of over 128 µg/mL. For the same compound, the MIC [3] was over 128 µg/mL, the MIC (E. coli AG100) was over 128 µg/mL and the MIC (E. coli D22) was 8 to 16 µg/mL (≈ 13.7 to 27.5 µM). For the same compound, the MIC (E. coli AG100A) was 8 to 16 µg/mL (≈ 13.7 to 27.5 µM), the MIC (E. coli 901C) was 0.5 to 1 µg/mL (≈ 0.859 to 1.72 µM) and the MIC (E. coli ATCC 25922) was over 128 µg/mL. For the same compound, the MIC (P. aeruginosa ATCC 27853) was over 128 µg/mL, the MIC (P. aeruginosa ATCC 35151) was 2 to 4 µg/mL (≈ 3.43 to 6.87 µM) and the MIC [4] was over 128 µg/mL. It also gave an MIC (N. gonorrhoeae H041) of over 64 µg/mL.

Compound `CCN1CCN(C(=O)N[C@@H](C(=O)N[C@H]2Cc3cccc(C(=O)O)c3OB2O)c2ccc(C(=O)O)cc2)C(=O)C1=O` (single isomer, unassigned) [Example 124] has an MIC [1] of over 128 µg/mL, an MIC [2] of 2 to 4 µg/mL (≈ 3.62 to 7.24 µM) and an MIC (A. baumannii ATCC 19606) of over 128 µg/mL. The MIC [3] was 32 to 64 µg/mL (≈ 57.9 to 116 µM), the MIC (E. coli AG100) was 8 to 16 µg/mL (≈ 14.5 to 29 µM) and the MIC (E. coli D22) was 2 to 4 µg/mL (≈ 3.62 to 7.24 µM). For the same compound, the MIC (E. coli AG100A) was 2 to 4 µg/mL (≈ 3.62 to 7.24 µM), the MIC (E. coli 901C) was under 0.25 µg/mL and the MIC (E. coli ATCC 25922) was 32 to 64 µg/mL (≈ 57.9 to 116 µM). For the same compound, the MIC (P. aeruginosa ATCC 27853) was 32 to 64 µg/mL (≈ 57.9 to 116 µM), the MIC (P. aeruginosa ATCC 35151) was under 0.25 µg/mL and the MIC [4] was over 128 µg/mL. It also gave an MIC (N. gonorrhoeae H041) of 4 to 8 µg/mL (≈ 7.24 to 14.5 µM).

In the case of `CCN1CCN(C(=O)NC(C(=O)N[C@H]2Cc3cccc(C(=O)O)c3OB2O)c2cc(F)c(C(=O)O)cc2F)C(=O)C1=O` (stereo partly drawn) [Example 137, (3R)-3-(2-(4-carboxy-2,5-difluorophenyl)-2-(4-ethyl-2,3-dioxopiperazine-1-carboxamido)acetamido)-2-hydroxy-3,4-dihydro-2H-benzo[e][1,2]oxaborinine-8-carboxylic acid], the MIC [1] is reported as over 128 µg/mL, the MIC [2] is reported as 8 to 16 µg/mL (≈ 13.6 to 27.2 µM) and the MIC (A. baumannii ATCC 19606) is reported as over 128 µg/mL. The MIC [3] was 32 to 64 µg/mL (≈ 54.4 to 109 µM), the MIC (E. coli AG100) was 32 to 64 µg/mL (≈ 54.4 to 109 µM) and the MIC (E. coli D22) was 8 to 16 µg/mL (≈ 13.6 to 27.2 µM). For the same compound, the MIC (E. coli AG100A) was 8 to 16 µg/mL (≈ 13.6 to 27.2 µM), the MIC (E. coli 901C) was under 0.25 µg/mL and the MIC (E. coli ATCC 25922) was 32 to 64 µg/mL (≈ 54.4 to 109 µM). The MIC (P. aeruginosa ATCC 27853) was over 128 µg/mL, the MIC (P. aeruginosa ATCC 35151) was 0.5 to 1 µg/mL (≈ 0.85 to 1.7 µM) and the MIC [4] was over 128 µg/mL. For the same compound, the MIC (N. gonorrhoeae H041) was 16 to 32 µg/mL (≈ 27.2 to 54.4 µM).

`CCN1CCN(C(=O)NC(C(=O)N[C@H]2Cc3cccc(C(=O)O)c3OB2O)c2cncc(O)c2)C(=O)C1=O` (stereo partly drawn) [Example 112, (3R)-3-(2-(4-ethyl-2,3-dioxopiperazine-1-carboxamido)-2-(5-hydroxypyridin-3-yl)acetamido)-2-hydroxy-3,4-dihydro-2H-benzo[e][1,2]oxaborinine-8-carboxylic acid] showed an MIC [1] of over 128 µg/mL, an MIC [2] of 8 to 16 µg/mL (≈ 15.2 to 30.5 µM) and an MIC (A. baumannii ATCC 19606) of over 128 µg/mL. It also gave an MIC [3] of 32 to 64 µg/mL (≈ 60.9 to 122 µM), an MIC (E. coli AG100) of 32 to 64 µg/mL (≈ 60.9 to 122 µM) and an MIC (E. coli D22) of 2 to 4 µg/mL (≈ 3.81 to 7.61 µM). The MIC (E. coli AG100A) was 2 to 4 µg/mL (≈ 3.81 to 7.61 µM), the MIC (E. coli 901C) was 0.5 to 1 µg/mL (≈ 0.952 to 1.9 µM) and the MIC (E. coli ATCC 25922) was 32 to 64 µg/mL (≈ 60.9 to 122 µM). It also gave an MIC (P. aeruginosa ATCC 27853) of over 128 µg/mL, an MIC (P. aeruginosa ATCC 35151) of 2 to 4 µg/mL (≈ 3.81 to 7.61 µM) and an MIC [4] of over 128 µg/mL. The MIC (N. gonorrhoeae H041) was over 64 µg/mL.

`NCCN1CCN(C(=O)N[C@@H](C(=O)N[C@H]2Cc3cccc(C(=O)O)c3OB2O)c2ccc(O)c(F)c2F)C(=O)C1=O` (single isomer, unassigned) [Example 170] gave an MIC [1] of 32 to 64 µg/mL (≈ 55.6 to 111 µM), an MIC [2] of 2 to 4 µg/mL (≈ 3.48 to 6.95 µM) and an MIC (A. baumannii ATCC 19606) of over 128 µg/mL. It also gave an MIC [3] of 8 to 16 µg/mL (≈ 13.9 to 27.8 µM), an MIC (E. coli AG100) of 8 to 16 µg/mL (≈ 13.9 to 27.8 µM) and an MIC (E. coli D22) of 2 to 4 µg/mL (≈ 3.48 to 6.95 µM). It also gave an MIC (E. coli AG100A) of 2 to 4 µg/mL (≈ 3.48 to 6.95 µM), an MIC (E. coli 901C) of 0.5 to 1 µg/mL (≈ 0.869 to 1.74 µM) and an MIC (E. coli ATCC 25922) of 8 to 16 µg/mL (≈ 13.9 to 27.8 µM). It also gave an MIC (P. aeruginosa ATCC 27853) of 32 to 64 µg/mL (≈ 55.6 to 111 µM), an MIC (P. aeruginosa ATCC 35151) of under 0.25 µg/mL and an MIC [4] of 32 to 64 µg/mL (≈ 55.6 to 111 µM). For the same compound, the MIC (N. gonorrhoeae H041) was over 64 µg/mL.
